Data taken from PubChem BioAssay (NCI).
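1) Cells in 96-well plates. 2) Compound, 48 h, 5 concentrations. 3) Linear interpolation between surrounding doses. 4) Unreached endpoint = highest concentration. At the GI50, growth is halved. TGI denotes the concentration required for complete inhibition of growth.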

Key:
Assay in all cases: NCI-60 cell line screen, 48 h
[1] = system: NCI-H23 lung
[2] = system: COLO 205 colon
[3] = system: CAKI-1 renal
[4] = system: SK-MEL-2 melanoma
[5] = system: KM12 colon
[6] = system: K-562 leukemia
[7] = system: HS 578T breast
[8] = system: NCI-H226 lung
[9] = system: SK-MEL-28 melanoma
[10] = system: PC-3 prostate
[11] = system: OVCAR-8 ovarian
[12] = system: SR leukemia
[13] = system: HT29 colon
[14] = system: EKVX NSCLC
[15] = system: CCRF-CEM leukemia
[16] = system: NCI-H522 lung
[17] = system: SK-MEL-5 melanoma
[18] = system: MDA-N
[19] = system: HCT-116 colon
[20] = system: TK-10 renal
[21] = system: NCI/ADR-RES ovarian
[22] = system: A498 renal
[23] = system: U251 CNS
[24] = system: MDA-MB-231 breast
[25] = system: NCI-H460 lung
[26] = system: UACC-62 melanoma
[27] = system: OVCAR-5 ovarian
[28] = system: SNB-75 CNS
[29] = system: IGROV1 ovarian
[30] = system: HCT-15 colon
[31] = system: HL-60(TB) leukemia
[32] = system: HOP-92 NSCLC
[33] = system: OVCAR-4 ovarian
[34] = system: SF-539 CNS
[35] = system: RPMI-8226 leukemia
[36] = system: SW-620 colon
[37] = system: OVCAR-3 ovarian
[38] = system: SN12C renal
[39] = system: A549 NSCLC
[40] = system: UACC-257 melanoma
[41] = system: ACHN renal
[42] = system: RXF 393 renal
[43] = system: LOX IMVI melanoma
[44] = system: DU-145 prostate
[45] = system: M14 melanoma
[46] = system: UO-31 renal
[47] = system: 786-0 renal
[48] = system: MOLT-4 leukemia
[49] = system: SF-268 CNS
[50] = system: MCF7 breast
[51] = system: SNB-19 CNS
[52] = system: SF-295 CNS
[53] = system: MDA-MB-435
[54] = system: T-47D breast
[55] = system: SK-OV-3 ovarian
[56] = system: MALME-3M melanoma
[57] = system: BT-549 breast
[58] = system: HCC-2998 colon
[59] = system: HOP-62 NSCLC

CC(=O)OC1[C@H](n2ccnc2)C[C@H]2[C@@H]3CC=C4CC(N5CCCC5)CC[C@]4(C)[C@H]3CC[C@]12C (stereo not given in full)
TGI [1]: > 100 µM | TGI [2]: > 100 µM | TGI [3]: > 100 µM | TGI [4]: 54.7 µM | TGI [5]: > 100 µM | TGI [6]: > 100 µM | TGI [7]: > 100 µM | TGI [8]: > 100 µM | TGI [9]: 60.4 µM | TGI [10]: > 100 µM | TGI [11]: > 100 µM | TGI [12]: 35.2 µM | TGI [13]: > 100 µM | TGI [14]: > 100 µM | TGI [15]: > 100 µM | TGI [16]: > 100 µM | TGI [17]: > 100 µM | TGI [18]: > 100 µM | TGI [19]: > 100 µM | TGI [20]: > 100 µM | TGI [21]: > 100 µM | TGI [22]: > 100 µM | TGI [23]: > 100 µM | TGI [24]: > 100 µM | TGI [25]: > 100 µM | TGI [26]: 82.3 µM | TGI [27]: > 100 µM | TGI [28]: > 100 µM | TGI [29]: > 100 µM | TGI [30]: > 100 µM | TGI [31]: 81.3 µM | TGI [32]: > 100 µM | TGI [33]: > 100 µM | TGI [34]: 36.8 µM | TGI [35]: > 100 µM | TGI [36]: > 100 µM | TGI [37]: > 100 µM | TGI [38]: > 100 µM | TGI [39]: > 100 µM | TGI [40]: 55.3 µM | TGI [41]: > 100 µM | TGI [42]: 43.7 µM | TGI [43]: 38.1 µM | TGI [44]: > 100 µM | TGI [45]: 61.6 µM | TGI [46]: > 100 µM | TGI [47]: > 100 µM | TGI [48]: 48.8 µM | TGI [49]: > 100 µM | TGI [50]: > 100 µM | TGI [51]: > 100 µM | TGI [52]: 41 µM | TGI [53]: > 100 µM

COc1cc(C2C3=C(COC3=O)Nc3cc4c(cc32)OCO4)cc2c1OCO2 (stereo not given)
GI50 [1]: 0.0757 µM | GI50 [2]: 0.0735 µM | TGI [2]: 0.172 µM | GI50 [3]: 0.156 µM | TGI [3]: > 100 µM | GI50 [4]: 0.113 µM | TGI [4]: > 26 µM | GI50 [5]: 0.0355 µM | TGI [5]: 1.92 µM | GI50 [6]: 0.034 µM | TGI [6]: > 100 µM | GI50 [7]: 0.0414 µM | TGI [7]: > 100 µM | GI50 [54]: > 100 µM | TGI [54]: > 100 µM | GI50 [8]: 0.0827 µM | TGI [9]: > 100 µM | GI50 [10]: 0.0629 µM | TGI [10]: > 100 µM | GI50 [11]: 0.102 µM | TGI [11]: > 100 µM | GI50 [12]: 0.0479 µM | TGI [12]: > 100 µM | GI50 [13]: 0.0722 µM | TGI [13]: 3.21 µM | TGI [14]: > 100 µM | GI50 [15]: 0.0698 µM | TGI [15]: > 100 µM | GI50 [16]: 0.0219 µM | TGI [16]: 0.0665 µM | GI50 [17]: 0.101 µM | TGI [17]: 0.374 µM | GI50 [19]: 0.0905 µM | TGI [19]: 3.49 µM | GI50 [20]: 0.295 µM | TGI [20]: > 100 µM | GI50 [21]: 0.0785 µM | TGI [21]: 0.606 µM | GI50 [22]: 0.0276 µM | TGI [22]: 0.12 µM | GI50 [23]: 0.111 µM | TGI [23]: > 100 µM | GI50 [24]: 0.128 µM | TGI [24]: > 100 µM | GI50 [25]: 0.0734 µM | TGI [25]: > 35 µM | GI50 [26]: 0.0519 µM | TGI [26]: > 100 µM | GI50 [27]: 1.09 µM | TGI [27]: > 100 µM | GI50 [55]: 0.0706 µM | GI50 [28]: 0.0337 µM | TGI [28]: 2.75 µM | GI50 [29]: 0.127 µM | TGI [29]: > 100 µM | GI50 [30]: 0.109 µM | TGI [30]: > 100 µM | GI50 [31]: 0.059 µM | GI50 [32]: 3.24 µM | TGI [32]: > 93.3 µM | GI50 [33]: 0.0982 µM | TGI [33]: > 100 µM | GI50 [34]: 0.0394 µM | TGI [34]: > 64.5 µM | GI50 [35]: 0.068 µM | TGI [35]: > 100 µM | GI50 [36]: 0.0651 µM | TGI [36]: > 100 µM | GI50 [37]: 0.0267 µM | TGI [37]: 0.0695 µM | GI50 [56]: > 100 µM | TGI [56]: > 100 µM | GI50 [38]: 0.154 µM | TGI [38]: > 100 µM | GI50 [57]: 1.66 µM | TGI [57]: > 100 µM | GI50 [39]: 0.117 µM | TGI [39]: > 100 µM | TGI [40]: > 100 µM | GI50 [41]: 0.357 µM | TGI [41]: > 100 µM | GI50 [58]: 0.109 µM | GI50 [42]: 0.0304 µM | TGI [42]: > 100 µM | GI50 [43]: 0.0801 µM | TGI [43]: > 100 µM | GI50 [44]: 0.0832 µM | TGI [44]: 0.459 µM | GI50 [45]: 0.03 µM | TGI [45]: 0.0878 µM | GI50 [46]: 0.332 µM | TGI [46]: > 100 µM | GI50 [47]: 0.138 µM | TGI [47]: > 100 µM | GI50 [48]: 0.123 µM | TGI [48]: > 100 µM | GI50 [49]: 0.0834 µM | TGI [49]: > 100 µM | GI50 [59]: 0.0762 µM | TGI [59]: > 87.2 µM | GI50 [50]: 0.0393 µM | TGI [50]: > 100 µM | GI50 [51]: 0.143 µM | TGI [51]: > 100 µM | GI50 [52]: 0.0299 µM | GI50 [53]: 0.0238 µM | TGI [53]: 0.0664 µM
